Source: patent publication US8772504B2, “Substituted benzoxazole, benzimidazole, oxazolopyridine and imidazopyridine derivatives as gamma secretase modulators” (Janssen Pharmaceuticals, Inc., priority 2009, dated 2014)

Tests used:
[1] = tested on: Notch-processing activity of the γ-secretase-complex; experiment: Notch cell-free assay (NICD production from recombinant Notch substrate N99); assay type: biochemical, mouse; conditions: 1 μM test compound, 0.3-0.5 μM Notch substrate, 37° C. for 6 to 22 h, western blotting
Protocol: The Notch transmembrane domain is cleaved by gamma secretase to release
Notch Intracellular C-terminal Domain (NICD).
To monitor the effect of compounds on NICD production, a recombinant Notch substrate (N99) was prepared. The Notch substrate, comprised of mouse Notch fragment (V1711-E1809), an N-terminal methionine and a C-terminal FLAG sequence ([…]), was expressed in E. coli and purified on a column containing an anti-FLAG M2 affinity matrix.
A typical Notch cell-free assay consisted of 0.3-0.5 μM Notch substrate, an enriched preparation of γ secretase and 1 μM of a test compound (compounds 8, 15, 92, 108, 114 and 130 of the present invention). Controls included a γ secretase inhibitor (GSI), such as (2S)—N-[2-(3,5-difluorophenyeacetyl]-L-alanyl-2-phenyl-glycine 1,1-dimethylethyl ester (DAPT) or (2S)-2-hydroxy-3-methyl-N-[(1S)-1-methyl-2-oxo-2-[[(1S)-2,3,4,5-tetrahydro-3-methyl-2-oxo-1H-3-benzazepin-1-yl]amino]ethyl]-butanamide (Semagacestat), and DMSO, the final concentration of DMSO being 1%. Recombinant Notch substrate was pre-treated with 17 μM DTT (1,4-dithiothreitol) and 0.02% SDS (Sodium Dodecyl Sulfate) and heated at 65° C. for 10 min. The mixture of substrate, gamma secretase and compound/DMSO was incubated at 37° C. for 6 to 22 hours (h). 6 h incubation was sufficient to produce the maximal amount of NICD and the cleaved product remained stable for an additional 16 h. Reaction products were processed for SDS PAGE (Sodium Dodecyl Sulfate-Poly Acrylamide Gel Electrophoresis) and western blotting. Blots were probed with an anti-Flag M2 antibody, followed by LI-COR infrared secondary antibody, and analyzed with the Odyssey Infrared Imaging System (LI-COR® Biosciences).

[2] = tested on: T1, Notch-processing activity of the γ-secretase-complex; experiment: Notch cell-based assay (N2-CHO/DL-CHO co-culture, Dual-Glo luciferase); set-up: species or system mouse; conditions: N2-CHO/DL-CHO co-culture 16 h; five-point curve 3 μM-0.3 nM
T1 construct: average IC50 Notch cell-based assay (luciferase readout); other: N2-CHO/DL-CHO co-culture 16 h; five-point curve 3 μM-
Description: The Notch cell-based assay was based on the interaction of Notch and its ligand in a co-culture system and utilized the Dual-Glo Luciferase Assay System (Promega) to monitor NICD production. 2 stable cell lines, N2-CHO and DL-CHO, were established to express full-length mouse Notch2 and Delta respectively. Cells that expressed mouse Notch were also transfected with 2 plasmids, pTP1-Luc and pCMV-RLuc, to express firefly and Renilla luciferase. Expression of firefly luciferase was under the control of TP1 promoter that responded to NICD activation.
N2-CHO cells were seeded at 1×10^5/well in 24-well plates the day before transfection. On the second day, cells were double transfected with 3 μg/well pTP1-Luc (expressing firefly luciferase) and 0.3 ng/well pCMV-RLuc (expressing Renilla luciferase). After 6 h incubation, transfected N2-CHO cells were washed and DL-CHO cells (2×10^5 cells/well) were added.
Compounds were pre-mixed with DL-CHO cell suspension in a five-point curve. Typically, compound treatment was performed in duplicate with a serial 1:10 dilution (3 μM-0.3 nM) in DMSO. The final concentration of DMSO in a given culture was 1%. Controls included non-transfected cells and transfected cells treated with a GSI or DMSO only. Luciferase assays were performed after 16 h co-culture and compound treatment.
The luciferase assay was carried out according to manufacture's instructions. Briefly, cells were washed with PBS (Phosphate Buffered Saline), lysed with Passive Lysis Buffer (Promega), and incubated at room temperature for 20 min. Lysates were mixed with Dual-Glo Luciferase Reagent and the firefly luciferase activity was measured by reading the luminescence signal in the EnVision 2101 Multilabel reader. Dual-Glo Stop & Glo Reagent was then added to each well and the Renilla luciferase signal was measured.

Row | Structure (SMILES) | effect on the Notch-processing activity of the γ-secretase-complex (production of NICD) [1] | inhibition in Notch cell-based assay (luciferase readout) [2]
1 | COc1cc(Nc2nccc3c2nc(-c2ccc(F)cc2)n3C)ccc1-n1cnc(C)c1 [Compound 8] | did not show an effect | –
2 | COc1nc(Nc2cccc3c2nc(-c2ccc(F)cc2)n3C)ccc1-n1cnc(C)c1 [Compound 15] | did not show an effect | non-inhibitory
3 | COc1cc(Nc2nccc3c2nc(-c2ccc(F)cc2)n3C)ccc1-n1cnc(C)n1 [Compound 92] | did not show an effect | non-inhibitory
4 | COc1cc(-c2nc3c(Nc4ccc(-n5cnc(C)n5)c(OC)c4)nccc3n2C)ccc1Cl [Compound 114] | did not show an effect | non-inhibitory
5 | COc1cc(Nc2nccc3c2nc(-c2ccccc2C(F)(F)F)n3C)ccc1-n1cnc(C)n1 [Compound 130] | did not show an effect | non-inhibitory
